Measurements taken from patent US9718809B2, “Bisarylsulfonamides useful in the treatment of inflammation and cancer” (Kancera AB, priority 2011, dated 2017).
pIC50: −log10 of the molar value.

How the values were obtained:
[1] = test system: F-2,6-P2 in MCF-7 cells; assay: Quantification of F-2,6-P2 (Van Schaftingen coupled enzyme assay) in MCF-7 cells; assay type: cell-based; conditions: Homo sapiens, MCF7, read-out: IC50 based on quantification of F-2,6-P2
Excerpt: (§1) A method for quantification of F-2,6-P2 has been described by Van Schaftingen et al. (1982) Eur. J. Biochem. 129, 191-5. This sensitive assay is based on the potent activation of pyrophosphate dependent phosphofructokinase-1 (PPi-PFK) from potato tubers by F-2,6-P2. The use of a series of coupled enzymes leads to a consumption of NADH (nicotinamide adenine dinucleotide) that can be followed spectrophotometrically (an updated protocol is available in Van Schaftingen, (1984) Methods of Enzymatic Analysis (Bergmeyer, H. U., ed.), 3rd edn., vol. 6, pp. 335-341, Verlag Chemie, Weinheim). A protocol for measurements in 96-well microtiter plate format is also available (Bruni et al., (1989) Anal. Biochem. 178, 324-6).
(§2) The levels of F-2,6-P2 have been determined using the van Shaftingen assay as described in the protocol below, in six different cancer cell lines endogenously expressing varying levels of the different isoforms of PFK-2/BPase-2 (MCF-7, PANC-1, NUGC-3, SW480, SW620 and MIA PaCa-2). All reagents were purchased from commercial sources or prepared in-house.
Cell line A (MCF-7, human breast adenocarcinoma cell line): MCF-7 cells (ATCC-HTB-22), lot. no. 58469417. […]

[2] = test system: F-2,6-P2 in MIA PaCa-2 cells; assay: Quantification of F-2,6-P2 (Van Schaftingen coupled enzyme assay) in MIA PaCa-2 cells; assay type: cell-based; conditions: Homo sapiens, read-out: IC50 based on quantification of F-2,6-P2
Excerpt: as §1, §2
Cell line F (MIA PaCa-2, human pancreatic carcinoma): MIA PaCa-2 cells (ATCC-CRL-1420), lot. no. 59270201. Cells were seeded at a concentration of ˜250 000 cells/mL in 100 μL growth medium (˜25 000 cells/well). […]

[3] = Plasma exposure in NMRI nude mice; assay type: in vivo, mouse; conditions: 45 mg/kg, 0.5 h after last injection (day 21)
Protocol: In a related study using the same dosing schedule in NMRI nude mice, blood samples were drawn 0.5 h after last injection (day 21) to determine exposure of Example 183. Plasma, prepared by centrifugation of the blood, was frozen and kept at −20° C. Thawed plasma samples were precipitated with MeCN, centrifuged and the supernatants were analyzed by LC-MSMS. Standard samples, prepared by spiking blank plasma with Example 183, were used for quantification.

[4] = test system: NMRI mice; assay: In vivo tolerance in NMRI mice; set-up: species or system mouse; conditions: 25 and 45 mg/kg
Protocol: In vivo tolerance was tested in NMRI mice using Examples 157 and 183 in 2 doses (25 and 45 mg/kg), following intraperitoneal injections daily for seven days.

[5] = test system: MIA PaCa-2 xenografts; assay: Inhibition of tumour growth, MIA PaCa-2 xenografts in NMRI nude mice; assay type: in vivo, mouse; conditions: 45 mg/kg twice a day, 3 weeks
Protocol: FIG. 3 illustrates the effects of treatment with Example 183 on the growth of established xenografts from the human pancreatic carcinoma cell line MIA PaCa-2 in NMRI nude mice. NMRI nude mice were injected subcutaneously with MIA PaCa-2 cells. At an average tumor size of around 100 mm^3 mice were selected and randomized into treated (injected with substance) and control (vehicle treated) groups. Example 183 was administered at two doses, 25 mg/kg and 45 mg/kg, twice a day with 12 hours between administrations. From the day of inoculation the tumors were scored or measured three times a week using a digital caliper, and the body weights were determined at the same time points. The dose of injected substance was adjusted to the actual body weight of each animal. The dosing of the animals was in a period of 3 weeks.

[6] = In vitro metabolic stability in human liver microsomes; assay type: in vitro ADME; conditions: pH 7.4, pooled human liver microsomes 0.5 mg/ml, NADPH 1 mM, compound 3 μM
Protocol: Pooled human liver microsomes (final protein conc 0.5 mg/ml), 0.1 M phosphate buffer (pH 7.4) and NADPH (final conc 1 mM) were pre-incubated at 37° C. Example 183 (final conc 3 μM) was added to initiate the reaction. A control incubation where 0.1 M phosphate buffer (pH 7.4) was added instead of NADPH was done as a parallel experiment. After incubation for 0, 5, 10, 30 and 45 min with NADPH (for 45 min in the control incubation), MeCN containing internal standard was added to stop the reactions. The samples were centrifuged at 2500 rpm for 20 min at 4° C. before analysis using LC-MS/MS.

[7] = Cell toxicity, CellTiter-Blue Cell Viability Assay; conditions: human, MIA PaCa-2 pancreatic carcinoma cells, MIA PaCa-2 cells, 72 h culture, read-out: IC50 based on cell toxicity
Protocol: The CellTiter-Blue® Cell Viability Assay provides a homogeneous, fluorometric method for estimating the number of viable cells present in multi-well plates. It uses the indicator dye resazurin to measure the metabolic capacity of cells. Viable cells retain the ability to reduce resazurin into resorufin, which is highly fluorescent.
Stock solutions (10 or 100 mM in DMSO) of compounds were serially diluted 1:2 in 11 concentrations. 25 nL/well (100 mM stock) or 50 nL/well (10 mM stock) were acoustically dispensed in assay plates with EDC acoustic dispenser. Final starting conc. in assay was 20 μM (0.2% DMSO) or 100 μM (0.1% DMSO) for test compounds.
Cells (MIA-PaCa-2; pancreatic carcinoma) were seeded in assay plates (384-well black/clear, Greiner #781091) pre-dispensed with compounds, 25 μL/well, and cultured for 72 h. The cell concentration was 750 cells/well. After 72 h culture, Celltiter Blue reagent was added (5 μL/well) and the plates were incubated for 2 h. The plates were read in an Envision fluorescence reader with Ex544 nm/Em590 nm. Results were calculated as % cytotoxicity compared to background (cells treated with 0.2% DMSO).

[8] = test system: F-2,6-P2 in SW480 cells; assay: Quantification of F-2,6-P2 (Van Schaftingen coupled enzyme assay) in SW480 cells; assay type: cell-based; conditions: Homo sapiens, read-out: IC50 based on quantification of F-2,6-P2
Excerpt: as §1, §2
Cell line D (SW480, human colorectal adenocarcinoma): SW480 cells (ATCC-CCL-228), lot. no. 58471880. Cells were seeded at a concentration of ˜350 000 cells/mL in 100 μL growth medium (˜35 000 cells/well).
Growth medium (cell lines B-F): Dulbecco's Modified Eagle's Medium, DMEM, VWR, LONZ12-604F; 10% FBS, Invitrogen, 10270-106. […]

[9] = test system: F-2,6-P2 in NUGC-3 cells; assay: Quantification of F-2,6-P2 (Van Schaftingen coupled enzyme assay) in NUGC-3 cells; assay type: cell-based; conditions: Homo sapiens; NUGC-3 cells seeded at 25 000 cells/well; read-out: IC50 based on quantification of F-2,6-P2
Excerpt: as §1, §2
Cell line C (NUGC-3, human gastric cancer cell line): NUGC-3 cells (JCRB0822), lot no. 04272009. Growth medium: RPMI1640, #R8758, Sigma-Aldrich; 10% FBS, Invitrogen, 10270-106 or Dulbecco's Modified Eagle's Medium, DMEM, VWR, LONZ12-604F; 10% FBS, Invitrogen, 10270-106. Cells were seeded at a concentration of ˜350 000 cells/mL in 100 μL growth medium (˜35 000 cells/well).
Starvation medium (cell lines A-F): DMEM/F12 without phenol red and glucose free, SVA, 991373; 0.25% FBS, Invitrogen, 10270-106.
Induction medium (cell lines A-F): DMEM/F12 without phenol red and glucose free, SVA, 991373; 0.25% FBS, Invitrogen, 10270-106 (same as starvation medium).
Cells were seeded in 96-well Corning Costar tissue culture plates (CLS3595, Sigma-Aldrich) using the concentrations specified above for the different cell lines A-F and incubated over night at 37° C. and 5% CO2. Row A in the plate was left empty and the cell lines added to rows B-H. Next day the growth medium was discarded and replaced with 100 μL starvation medium. The plates were incubated for 18 h at 37° C. and 5% CO2. After 18 h of starvation the cells were induced with 100 μL compound or control solutions. Compounds were either tested in two concentrations (50 μM and 10 μM) or in dose response curves starting from 50 μM. The final DMSO concentration in assay plates was 0.5%. Also a dose response curve of a reference inhibitor was included in row H on each plate. All compounds were tested in duplicate plates. Compounds (in 96 well CLS 3365, Sigma-Aldrich plates) were serial diluted in DMSO from 10 mM compound DMSO stock solutions with Janus (automated liquid handling workstation from PerkinElmer). Five μL were transferred to a Greiner deep well plate (736-0155, VWR) with 495 μL starvation medium. The final start concentration of compounds in the dilution plate was 100 μM, 1% DMSO. For compounds tested as single points, 10 mM compound solutions were diluted five fold in DMSO to 2 mM, followed by the transfer of 5 μL to separate dilution plates with 495 μL starvation medium. The final concentrations of compounds in these dilution plates were 100 or 20 μM, respectively, and final concentration of DMSO was 1%. The plates were incubated at 37° C. and 5% CO2 for 1 h, followed by the addition of 10 μL 20 mM D-glucose in starvation medium. Controls, with and without 1 mM glucose, were included in row B. The final assay volume was 210 μL per well. After 2 h of incubation at 37° C. and 5% CO2, the supernatants were discarded and the cells lysed by the addition of 25 μL 250 mM NaOH. The plates were incubated at 37° C. and 5% CO2 for 5 min followed by an addition of 75 μL MilliQ dH2O. The supernatants were further diluted with 210 μL MilliQ dH2O to a final concentration of 20 mM NaOH. 200 μL were transferred to NUNC 96-well plates (7322661, VWR) and the plates were sealed and stored at −20° C. until analysis. […]

Question: With `COCCOC(=O)c1ccc(NS(=O)(=O)c2cc(-c3ccc4c(c3)CCO4)c(Cl)s2)cc1O` [Example 76, 2-Methoxyethyl 4-({[5-chloro-4-(2,3-dihydro-1-benzofuran-5-yl)-2-thienyl]sulfonyl}amino)-2-hydroxybenzoate] as the compound, how does the pIC50 [1] read?
Answer: The pIC50 was 6.05.

Question: With `O=C(OCCO)c1ccc(NS(=O)(=O)c2cccc(-c3cc(F)ccc3O)c2)cc1O` [Example 183, 2-Hydroxyethyl 4-{[(5′-fluoro-2′-hydroxybiphenyl-3-yl)sulfonyl]amino}-2-hydroxybenzoate] as the compound, how does the pIC50 [2] read?
Answer: Its pIC50 is 6.70.

Question: And the “exposure of unbound compound in plasma versus in vitro IC50 value (MIA PaCa-2 cells)” value [3]?
Answer: The value was “exceeded the in vitro IC50 value”.

Question: What about the “histological examinations of organs” value ([4]; intraperitoneal daily for seven days, adrenal gland, brain, cerebellum, heart, intestines, kidneys, liver, lungs, mesenteric lymph node, pancreas, spleen) of the same compound?
Answer: Its value is “Specific lesions consistent with toxic damage were not observed”.

Question: And the “macro observations during and after treatment” value ([4]; intraperitoneal injections daily for seven days)?
Answer: The value was “no sign of abnormal behavior or health problem”.

Question: And the “tumor growth compared to a vehicle treated group” value [5]?
Answer: Its value is “significant inhibition (p<0.01)”.

Question: What about the half-life at 3 μM [6] of the same compound?
Answer: Its half-life at 3 μM is 55 min.

Question: And the microsomal CLint at 3 μM ([6]; read-out: intrinsic clearance)?
Answer: Its microsomal CLint at 3 μM is 25 µL/min/mg.

Question: And the IC50 at 72 h [7]?
Answer: The IC50 at 72 h was 2600 nM.

Question: With `O=C(OCCCN1CCOCC1)c1ccc(NS(=O)(=O)c2c(Cl)sc(Cl)c2Cl)cc1O` [Example 164, 3-Morpholin-4-ylpropyl 2-hydroxy-4-{[(2,4,5-trichloro-3-thienyl)sulfonyl]amino}benzoate] as the compound, how does the pIC50 [8] read?
Answer: Its pIC50 is 5.27.

Question: With `COC(=O)c1ccc(NS(=O)(=O)c2cccc(-c3ccccc3O)c2)cc1O` [Example 82, Methyl 2-hydroxy-4-{[(2′-hydroxybiphenyl-3-yl)sulfonyl]amino}benzoate] as the compound, how does the pIC50 [8] read?
Answer: Its pIC50 is 5.21.

Question: And the pIC50 [9]?
Answer: The pIC50 was 5.97.
